Assay [1] has as its target T1, Nurr1 LBD (wt) (Homo sapiens, UniProt P43354). The assay is described as follows: ITC ligand binding to Nurr1 wt LBD. Particulars: for n ligand binding to Nurr1 LBD: ITC stoichiometry; for n ligand binding to Nurr1 LBD / TΔS ligand binding to Nurr1 LBD: wt LBD.
Target sequence in this assay (P43354 360-595 limits assumed): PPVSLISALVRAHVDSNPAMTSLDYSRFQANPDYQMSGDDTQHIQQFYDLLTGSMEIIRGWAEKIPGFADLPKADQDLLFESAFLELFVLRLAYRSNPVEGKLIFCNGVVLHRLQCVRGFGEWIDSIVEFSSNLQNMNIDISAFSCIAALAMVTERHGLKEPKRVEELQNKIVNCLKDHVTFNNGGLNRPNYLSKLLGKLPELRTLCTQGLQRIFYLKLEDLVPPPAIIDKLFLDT
For assay [2], the target named is full-length human Nurr1 / RXR heterodimer (DR5) (Homo sapiens, UniProt P43354). The assay can be described thus: Full-length Nurr1 reporter gene assay, RXR-heterodimer response element (DR5). The class given is cell-based.
Assay [3] concerns the target full-length human Nurr1 (NBRE) (Homo sapiens, UniProt P43354). The assay is described as follows: Full-length Nurr1 reporter gene assay, monomer response element (NBRE). Type of assay: cell-based. (In a reporter assay the amount or activity of a reporter protein is the signal.)
Assay [4] addresses T2, Nurr1 LBD - NRIP (Homo sapiens, UniProt P43354).
T2 construct: a plasmid construct encoding Nurr1 (aa 364-598) in a pMal vector system; MBP (cleaved yes); made in house; host or cells: E. coli BL21-R3-pRARE2
The assay can be described thus: HTRF co-regulator recruitment assay, NRIP. The class given is biochemical. The following applies: fluorescein labeled coactivator peptide, read-out: IC50 NRIP displacement from Nurr1 LBD. The source says:
(§1) Homogeneous time-resolved fluorescence energy transfer (HTRF) experiments were used to study the recruitment of co-regulator peptides to the Nurr1-LBD in the presence or absence of test compounds. Terbium cryptate as streptavidin conjugate (Tb-SA; Cisbio Bioassays, Codolet, France) was used as FRET donor for stable coupling to biotinylated recombinant Nurr1 LBD protein. Fluorescein-labeled co-regulator peptides were used as FRET acceptors (peptide sequences are reported in Supplementary Tab. 4). […] Recruitment of CoREST and Lmx1b peptides was studied using biotin-labeled peptides for stable coupling to Tb-SA as FRET donor and sGFP-Nurr1[26] LBD as FRET acceptor. […] Experiments were carried out in 384 well format using white flat bottom small volume polystyrol microtiter plates (Greiner Bio-One, Frickenhausen, Germany). After 2 h incubation at rt, fluorescence intensities (FI) after excitation at 340 nm were recorded at 520 nm for fluorescein acceptor fluorescence and 620 nm for Tb-SA donor fluorescence on a SPARK plate reader (Tecan Group Ltd.). FI520 nm was divided by FI620 nm and multiplied with 10,000 to give a dimensionless HTRF signal.
Background: In TR-FRET formats the signal depends on donor and acceptor labels being close together.

The target of assay [5] is full-length human Nurr1 (NurRE) (Homo sapiens, UniProt P43354). The assay is described as follows: Full-length Nurr1 reporter gene assay, homodimer response element (NurRE). The class given is cell-based.
Assay [6] deals with T3, Nurr1 LBD - Lmx1b (Homo sapiens, UniProt P43354).
T3 construct: sGFP-Nurr1[26]; LBD as FRET acceptor; made in house
The assay is described as follows: HTRF co-regulator recruitment assay, Lmx1b. The following applies: biotinylated Lmx1b peptide, sGFP-Nurr1 LBD. Type of assay: biochemical.
Text: as §1

For assay [7], the target named is T4, Nurr1 LBD - CoREST (Homo sapiens, UniProt P43354).
T4 construct: sGFP-Nurr1[26]; LBD as FRET acceptor; made in house
The assay is described as follows: HTRF co-regulator recruitment assay, CoREST. Type of assay: biochemical. Particulars: biotinylated CoREST peptide, sGFP-Nurr1 LBD.
Text: as §1

In assay [8] the target is T5, Nurr1 LBD - SMRT (Homo sapiens, UniProt P43354).
T5 construct: a plasmid construct encoding Nurr1 (aa 364-598) in a pMal vector system; MBP (cleaved yes); made in house; host or cells: E. coli BL21-R3-pRARE2
The assay can be described thus: HTRF co-regulator recruitment assay, SMRT. The class given is biochemical. The following applies: fluorescein labeled corepressor peptide, read-out: IC50 SMRT displacement from Nurr1 LBD.
Text: as §1

The target in assay [9] is T6, Gal4-Nurr1 (wt human Nurr1 LBD) (Homo sapiens, UniProt P43354).
T6 construct: expressed in transfected cells; host or cells: HEK293T
The assay is described as follows: Gal4-Nurr1 hybrid reporter gene assay (wild-type). The class given is cell-based.

Assay [10] addresses T7, Nurr1 LBD - NCoA6 (Homo sapiens, UniProt P43354).
T7 construct: a plasmid construct encoding Nurr1 (aa 364-598) in a pMal vector system; MBP (cleaved yes); made in house; host or cells: E. coli BL21-R3-pRARE2
The assay is described as follows: HTRF co-regulator recruitment assay, NCoA6. The class given is biochemical. The following applies: fluorescein labeled coactivator peptide, read-out: IC50 NCoA6 displacement from Nurr1 LBD.
Text: as §1

Assay [11] concerns the target T1, Nurr1 LBD (wt). The assay can be described thus: Binding kinetics by biolayer interferometry (BLI). Particulars: read-out: dissociation rate koff. Further details: For generation of biotinylated Nurr1 a plasmid construct encoding Nurr1 (aa 364-598) in a pMal vector system; MBP (cleaved yes); made in house; host or cells: E.coli BL21-R3-pRARE2. (Biolayer interferometry detects binding as a change in optical thickness at a sensor tip.)
Target sequence in this assay (P43354 364-598): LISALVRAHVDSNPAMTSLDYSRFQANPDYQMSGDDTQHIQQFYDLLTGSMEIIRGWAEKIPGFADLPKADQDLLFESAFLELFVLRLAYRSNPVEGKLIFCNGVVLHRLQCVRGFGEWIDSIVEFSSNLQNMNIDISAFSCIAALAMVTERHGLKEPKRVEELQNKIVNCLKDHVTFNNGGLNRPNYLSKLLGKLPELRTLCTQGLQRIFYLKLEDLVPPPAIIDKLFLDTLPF
Protocol: BLI measurements were conducted using the Octet R8 instrument (Sartorius). Nurr1 was enzymatically biotinylated using BirA, and Super Streptavidin (SSA) sensors were used to capture the biotinylated Nurr1. Prior to the assay, SSA sensors were pre-soaked for 10 minutes in a buffer containing 20 mM HEPES (pH 7.4), 150 mM NaCl, 0.01% Tween-20, and 0.5% DMSO. The sensors were then loaded with 2 μM biotinylated Nurr1 for 10 min, reaching a response of ~10 nm. Free biotin sites were blocked by incubating the sensors with 20 μg/ml biocytin for 1 minute. After quenching, the sensors were washed for 20 min with HEPES buffer and equilibrated for 5 min in the same buffer supplemented with 1% PEG3K. The binding of compounds was monitored for 120 s, followed by a 120 s dissociation phase. Two control experiments were conducted: one with sensors coated with the protein but without the compound, and the other with uncoated biosensors exposed to the compound at corresponding concentrations. These controls were used to correct for non-specific binding and baseline interference.

The target of assay [12] is T8, Nurr1 LBD - RXRα LBD heterodimer (Homo sapiens, UniProt P43354). The assay can be described thus: ITC Nurr1-RXR dimerization. The following applies: ITC stoichiometry, ligand 200 µM.
Assay [13] concerns the target T8, Nurr1 LBD - RXRα LBD heterodimer. The assay is described as follows: HTRF Nurr1-RXRα heterodimer formation assay. Type of assay: biochemical. Further details: a plasmid construct encoding Nurr1 (aa 364-598) in a pMal vector system; MBP (cleaved yes); made in house; host or cells: E.coli BL21-R3-pRARE2 (biotinylated Nurr1 LBD).
Protocol: Assay solutions were prepared in HTRF assay buffer supplemented with 0.1% (w/v) CHAPS as well as 1% DMSO with test compounds at fixed concentrations or DMSO alone as negative control (apo). […] Samples were equilibrated at RT for 2 h before FI520 and FI620 were recorded after excitation at 340 nm, and the HTRF signal was calculated as described above.
Assay [14] concerns the target T9, Nurr1 LBD - NCOR1 (Homo sapiens, UniProt P43354).
T9 construct: a plasmid construct encoding Nurr1 (aa 364-598) in a pMal vector system; MBP (cleaved yes); made in house; host or cells: E. coli BL21-R3-pRARE2
The assay can be described thus: HTRF co-regulator recruitment assay, NCOR1. Type of assay: biochemical. Particulars: fluorescein labeled corepressor peptide, read-out: IC50 NCOR1 displacement from Nurr1 LBD.
Text: as §1

In assay [15] the target is T10, Nurr1 LBD - PIASγ (Homo sapiens, UniProt P43354).
T10 construct: a plasmid construct encoding Nurr1 (aa 364-598) in a pMal vector system; MBP (cleaved yes); made in house; host or cells: E. coli BL21-R3-pRARE2
The assay can be described thus: HTRF co-regulator recruitment assay, PIASγ. Type of assay: biochemical. The following applies: fluorescein labeled corepressor peptide, read-out: IC50 PIASγ displacement from Nurr1 LBD.
Text: as §1

The target in assay [16] is T11, Gal4-Nurr1 I500W/V373W (Homo sapiens, UniProt P43354, I500W/V373W).
T11 construct: expressed in transfected cells; host or cells: HEK293T
The assay is described as follows: Gal4-Nurr1 hybrid reporter gene assay, double mutant I500W/V373W. Type of assay: cell-based. Particulars: fold reporter activation vs. DMSO.

Assay [17] deals with T12, Gal4-Nurr1 I500F (Homo sapiens, UniProt P43354, I500F).
T12 construct: expressed in transfected cells; host or cells: HEK293T
The assay is described as follows: Gal4-Nurr1 hybrid reporter gene assay, mutant I500F. The class given is cell-based. Particulars: vs wt.

The target in assay [18] is T13, Gal4-Nurr1 H372F (Homo sapiens, UniProt P43354, H372F).
T13 construct: expressed in transfected cells; host or cells: HEK293T
The assay can be described thus: Gal4-Nurr1 hybrid reporter gene assay, mutant H372F. The class given is cell-based. The following applies: vs wt.

We go through two compounds from paper PMC12095788 (Communications Chemistry, 2025).

Broadly, the Kd is the free concentration of one partner at which half of the binding sites on the other are occupied at equilibrium, for simple one-to-one binding. Usually EC50 stands for the concentration that produces a half-maximal response. A lower EC50 goes with an effect from little substance. One may read the IC50 as the concentration that gives 50% inhibition. As a reminder, the koff is the rate constant with which the complex falls apart.

T8 sequence (P43354 364-598, one chain of several): as the sequence (P43354 364-598) above
T6 sequence (P43354 360-595 limits assumed): as the sequence (P43354 360-595 limits assumed) above
T4 sequence (P43354 360-595 limits assumed): as above
T12 sequence (P43354 360-595 I500F limits assumed): as the sequence (P43354 360-595 limits assumed) above, with I141F counted along it
T2 sequence (P43354 364-598): as the sequence (P43354 364-598) above
T7 sequence (P43354 364-598): as above
T10 sequence (P43354 364-598): as above
T5 sequence (P43354 364-598): as above
T9 sequence (P43354 364-598): as above
T13 sequence (P43354 360-595 H372F limits assumed): as the sequence (P43354 360-595 limits assumed) above, with H13F counted along it
T11 sequence (P43354 360-595 V373W/I500W limits assumed): as the sequence (P43354 360-595 limits assumed) above, with V14W, I141W counted along it
full-length human Nurr1 (NBRE), sequence (P43354 whole entry, the tested form may be a part): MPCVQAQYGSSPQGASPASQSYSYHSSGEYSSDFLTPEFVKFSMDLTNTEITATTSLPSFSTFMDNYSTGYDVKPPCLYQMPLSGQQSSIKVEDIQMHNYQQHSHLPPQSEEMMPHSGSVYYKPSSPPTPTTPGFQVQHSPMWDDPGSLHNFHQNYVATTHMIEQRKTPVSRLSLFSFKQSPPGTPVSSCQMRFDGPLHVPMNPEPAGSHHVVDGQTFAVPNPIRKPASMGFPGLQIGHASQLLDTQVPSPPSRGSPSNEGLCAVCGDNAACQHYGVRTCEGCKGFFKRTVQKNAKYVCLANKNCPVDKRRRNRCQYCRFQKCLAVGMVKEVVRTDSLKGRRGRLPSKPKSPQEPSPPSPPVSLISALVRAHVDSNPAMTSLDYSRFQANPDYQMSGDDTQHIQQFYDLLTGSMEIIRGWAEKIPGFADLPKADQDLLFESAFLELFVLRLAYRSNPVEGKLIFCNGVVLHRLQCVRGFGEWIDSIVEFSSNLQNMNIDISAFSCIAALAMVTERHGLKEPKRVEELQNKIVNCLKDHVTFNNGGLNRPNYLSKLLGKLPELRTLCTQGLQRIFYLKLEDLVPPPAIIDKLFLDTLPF
full-length human Nurr1 / RXR heterodimer (DR5), sequence (P43354 whole entry, one chain of several): as the sequence (P43354 whole entry, the tested form may be a part) above
full-length human Nurr1 (NurRE), sequence (P43354 whole entry, the tested form may be a part): as above
T3 sequence (P43354 360-595 limits assumed): as the sequence (P43354 360-595 limits assumed) above
T3 sequence (O60663 382-402 partner limits assumed): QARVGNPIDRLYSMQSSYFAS

Take `O=C(O)C1=C(C(=O)Nc2ccc(-c3ccccc3OCc3ccccc3)cc2F)CCC1` [compound 1, 2-{[2’-(Benzyloxy)-3-fluoro-[1,1’-biphenyl]-4-yl]carbamoyl}cyclopent-1-ene-1-carboxylic acid]: in assay [1], binding was characterised by a dissociation constant (Kd) of 0.11 µM. Further, in assay [1], the “n ligand binding to Nurr1 LBD” value is on record as 1.00±0.04. The “TΔS ligand binding to Nurr1 LBD” value in [1] (ITC) was -5.5 ± 1.8 kcal/mol. The “affinity to Nurr1 LBD relative to vidofludimus” value in assay [1] (enhanced affinity vs vidofludimus, ITC) is on record as 7 fold. The half-maximal effective concentration (EC50) in [2] is 0.06 ± 0.01 µM; in assay [3] it was 0.06 ± 0.01 µM; in assay [5], 0.07 ± 0.01 µM; in assay [9] (HEK293T, Gal4 hybrid reporter, wt), 0.03 ± 0.01 µM. Moreover, the half-inhibitory concentration (IC50) was found to be 7 ± 2 µM in assay [4]; 5 ± 2 µM in assay [8]; 7 ± 2 µM in [10]; 4 ± 1 µM in assay [14]; 12 ± 2 µM in assay [15]. The “effect on Lmx1b recruitment to Nurr1 LBD” value in assay [6] is reported as “no effect”. Moreover, the “effect on CoREST recruitment to Nurr1 LBD” value in assay [7] was “slightly reduced”. The “potency on Gal4-Nurr1 relative to vidofludimus” value in [9] (higher potency than vidofludimus) was found to be 10 fold. Also, the off-rate constant (koff) in assay [11] is 0.0224 s⁻¹. In addition, the “n Nurr1 LBD – RXR LBD” value in [12] amounted to 0.98±0.09. For the same compound, in [13], the “effect on Nurr1-RXR heterodimerization” value was “weakened”.
As for `CC(C)n1c(/C=C/C(O)CC(O)CC(=O)O)c(-c2ccc(F)cc2)c2ccccc21` (stereo not shown) [fluvastatin, reference compound], the “n ligand binding to Nurr1 LBD” value in assay [1] is recorded as 0.90±0.04. Also, in assay [1] (ITC), the “TΔS ligand binding to Nurr1 LBD” value was found to be 3.7 ± 0.3 kcal/mol. Also, the “activation of Gal4-Nurr1 double mutant I500W/V373W” value in [16] was “responded”. Moreover, the “effect of I500F mutation on Nurr1 activation by the ligand” value in [17] is given as “did not alter”. Also, the “effect of H372F mutation on Nurr1 activation by the ligand” value in assay [18] is “did not alter”. Moreover, in assay [7], the “effect on CoREST recruitment to Nurr1 LBD” value is reported as “slightly reduced”.
